# Test results taken from ChEMBL document CHEMBL1201862, “PubChem BioAssay data set” (2004).
#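 These data come from cells grown in 96-well plates and exposed to compound for 48 hours at five concentrations. Abbreviation: GI50, concentration required for 50% inhibition of growth.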 The source made the active and inactive calls. No stated cut-off is given here; in the data, active = GI50 up to about 1.1 µM and inactive = higher.
# What was measured:
# Assay in all cases: DTP human tumour cell line panel, 48 h
# 786-0 = tested on: 786-0
# CAKI-1 = tested on: CAKI-1
# CCRF-CEM = tested on: CCRF-CEM
# DU-145 = tested on: DU-145
# HCT-116 = tested on: HCT-116
# HCT-15 = tested on: HCT-15
# HL-60 = tested on: HL-60
# HT-29 = tested on: HT-29
# MCF7 = tested on: MCF7
# MDA-MB-231 = tested on: MDA-MB-231
# NCI-H226 = tested on: NCI-H226
# NCI-H23 = tested on: NCI-H23
# NCI-H460 = tested on: NCI-H460
# SF-295 = tested on: SF-295
# SF-539 = tested on: SF-539
# UACC-62 = tested on: UACC-62
# UO-31 = tested on: UO-31
# SN12C = tested on: SN12C
SMILES,GI50 (786-0),GI50 (CAKI-1),GI50 (CCRF-CEM),GI50 (DU-145),GI50 (HCT-116),GI50 (HCT-15) [µM],GI50 (HL-60),GI50 (HT-29),GI50 (MCF7),GI50 (MDA-MB-231),GI50 (NCI-H226),GI50 (NCI-H23),GI50 (NCI-H460),GI50 (SF-295),GI50 (SF-539),GI50 (UACC-62),GI50 (UO-31),GI50 (SN12C)
S=C(N/N=C(/c1ccccc1)c1ccccn1)N1CCCCC1,< 0.0286 µM (active),0.143 µM (active),< 0.0134 µM (active),0.618 µM (active),0.01 µM (active),< 0.0234,0.01 µM (active),< 0.016 µM (active),0.0425 µM (active),0.0273 µM (active),0.134 µM (active),0.0459 µM (active),< 0.0211 µM (active),< 0.031 µM (active),0.424 µM (active),0.16 µM (active),0.0716 µM (active),–
COc1cc2oc(=O)cc(C)c2cc1O,> 100 µM (inactive),> 100 µM (inactive),> 100 µM (inactive),> 100 µM (inactive),> 100 µM (inactive),> 100,> 100 µM (inactive),> 100 µM (inactive),> 100 µM (inactive),> 100 µM (inactive),> 100 µM (inactive),> 100 µM (inactive),> 100 µM (inactive),> 100 µM (inactive),> 100 µM (inactive),–,54.5 µM (inactive),> 100 µM (inactive)
N#Cc1c(-c2ccccc2)cc(Nc2ccc(F)cc2)n2c1nc1ccccc12,2.78 µM (inactive),3.2 µM (inactive),–,2.94 µM (inactive),1.83 µM (inactive),3.26,> 100 µM (inactive),2.26 µM (inactive),2.18 µM (inactive),3.83 µM (inactive),2.81 µM (inactive),3.18 µM (inactive),2.36 µM (inactive),2.22 µM (inactive),3.26 µM (inactive),1.84 µM (inactive),1.73 µM (inactive),2.02 µM (inactive)
c1ccc2c(c1)[nH]c1nc3cc(-c4ccc5nc6c(nc5c4)[nH]c4ccccc46)ccc3nc12,> 100 µM (inactive),> 100 µM (inactive),12.9 µM (inactive),> 100 µM (inactive),> 69.7 µM (inactive),–,20.9 µM (inactive),> 100 µM (inactive),20.5 µM (inactive),> 34.5 µM (inactive),> 100 µM (inactive),> 59 µM (inactive),> 33.5 µM (inactive),> 100 µM (inactive),–,> 72.9 µM (inactive),> 100 µM (inactive),> 100 µM (inactive)
O=C1/C(=C/c2ccccc2)N=C(c2ccccc2)N1C1Nc2cc3c(cc2S1)NC(N1C(=O)/C(=C/c2ccccc2)N=C1c1ccccc1)S3 (stereo not given),53.6 µM (inactive),> 100 µM (inactive),31.7 µM (inactive),46.6 µM (inactive),32.5 µM (inactive),24.2,3.63 µM (inactive),5.01 µM (inactive),22.3 µM (inactive),1.82 µM (inactive),44.5 µM (inactive),4.9 µM (inactive),17.9 µM (inactive),> 100 µM (inactive),> 100 µM (inactive),–,47.8 µM (inactive),–
CCC1(CC)C(=O)N(C(=O)c2ccc(C)cc2)N(C(=O)c2ccc(C)cc2)C1=O,> 75 µM (inactive),52 µM (inactive),33.1 µM (inactive),> 75 µM (inactive),32.2 µM (inactive),32,28.4 µM (inactive),> 75 µM (inactive),45.5 µM (inactive),> 75 µM (inactive),> 75 µM (inactive),27.2 µM (inactive),18.3 µM (inactive),72.9 µM (inactive),–,> 75 µM (inactive),> 75 µM (inactive),54.2 µM (inactive)
